In patent US20230364074A1, “Compounds and Compositions for Disrupting Programmed Ribosomal Frameshifting” (YALE UNIVERSITY, priority 2020, published 2023):
Structures can show the parent of a compound that is named as a salt. Where two headings read alike, the source gives them in different places.

Assays:
SARS-CoV-2 FSE (−1 PRF) = assay: cells; type: cell-based
HEK293T cells = assay: Cell viability in the high-throughput screen (cell nuclei numbers)
Procedure: HEK293T cells were plated in 384 well plates at the density of 5,000 cells/well. Cells were treated by 10 μM candidate compounds 30 min before transfection of 15 ng mCherry-FSE-GFP(−1) plasmid DNA in each well. 24 hours after transfection, cell nuclei were stained with Hoechst dye. Cell nuclei, mCherry, and GFP signals were imaged using an automated fluorescent microscope with a 10x objective, and the acquired images were quantified using the CellProfiler image analysis package. Cell nuclei numbers were quantified as the metric for cell viability. Mean GFP and RFP intensity values were measured in all transfected cells, and GFP/mCherry mean intensity ratios were quantified as the metric for PRF efficiency. The mCherry-GFP fusion plasmid and the mCherry-FSE-GFP(0) plasmid were used as positive and negative controls for elevated and reduced GFP/mCherry ratios, respectively.

[1] = Severe acute respiratory syndrome coronavirus 2, HEK-293T, 24 h; read-out: PERCENT EFFECT 2 (Decreased GFP/Red ratio)
[2] = Severe acute respiratory syndrome coronavirus 2, HEK-293T, 24 h; read-out: PERCENT EFFECT (Increased GFP/Red Ratio)
[3] = 10 μM compound, cell nuclei numbers
[4] = Severe acute respiratory syndrome coronavirus 2, HEK-293T, 24 h, read-out: PERCENT EFFECT 2 (Decreased GFP/Red ratio)
[5] = Severe acute respiratory syndrome coronavirus 2, HEK-293T, 24 h, read-out: PERCENT EFFECT (Increased GFP/Red Ratio)

Molecule | inhibition at 10 µM (SARS-CoV-2 FSE (−1 PRF); [1]) [%] | activation at 10 µM (SARS-CoV-2 FSE (−1 PRF); [2]) [%] | PERCENT VIABILITY (HEK293T cells; [3]) [%] | also measured
CCN(CC)CCCC(C)Nc1c2ccc(Cl)cc2nc2ccc(OC)cc12 (centres unmarked) [QUINACRINE HYDROCHLORIDE] | -40.8 | 21.1 | 147.8 | 
CCOC(=O)Nc1ccc(NCc2ccc(F)cc2)nc1N [flupirtine, ethyl N-(2-amino-6-{[(4-fluorophenyl)methyl]amino}pyridin-3-yl)carbamate] | -27.2 | 14.4 | 110.5 | 
CC[C@@]1(O)C[C@H](OC2CC(N(C)C)C(OC3CC(O)C(OC4CCC(=O)C(C)O4)C(C)O3)C(C)O2)c2c(cc3c(c2O)C(=O)c2c(O)cccc2C3=O)[C@H]1C(=O)OC (stereo partly drawn) [aclarubicin, methyl (1R,2R,4S)-4-[4-dimethylamino-5-[4-hydroxy-6-methyl-5-(6-methyl-5-oxooxan-2-yl)oxyoxan-2-yl]oxy-6-methyloxan-2-yl]oxy-2-ethyl-2,5,7-trihydroxy-6,11-dioxo-3,4-dihydro-1H-tetracene-1-carboxylate] | 33.3 |  | 52.5 | PERCENT VIABILITY (HEK293T cells; 10 μM compound, cell nuclei numbers, listed as Aclarubicin): 54.77%
CN(C)c1ccc(C(=C2C=CC(=[N+](C)C)C=C2)c2ccc(N(C)C)cc2)cc1 [GENTIAN VIOLET] | 66.6 | -34.5 | 12.5 | 
CC(=O)[C@]1(N)Cc2c(O)c3c(c(O)c2[C@@H](O[C@H]2C[C@H](O)[C@H](O)CO2)C1)C(=O)c1ccccc1C3=O.Cl [amrubicin, (7S,9S)-9-acetyl-9-amino-7-[(2S,4S,5R)-4,5-dihydroxyoxan-2-yl]oxy-6,11-dihydroxy-8,10-dihydro-7H-tetracene-5,12-dione hydrochloride] |  |  |  | inhibition at 10 µM (SARS-CoV-2 FSE (−1 PRF); [4]): 50.5%; activation at 10 µM (SARS-CoV-2 FSE (−1 PRF); [5]): -23.7%; PERCENT VIABILITY (HEK293T cells; human): 111.0%
CC[C@]1(O)C[C@@H]2CN(CCc3c([nH]c4ccccc34)[C@@](C(=O)OC)(c3cc4c(cc3OC)N(C)[C@H]3[C@@](O)(C(N)=O)[C@H](O)[C@]5(CC)C=CCN6CC[C@]43[C@@H]65)C2)C1 [Vindesine Sulfate] |  | 16.8 | 26.1 | PERCENT VIABILITY (HEK293T cells; 10 μM compound, cell nuclei numbers, listed as Vindesine sulfate): 21.3%
COc1ccc(C[C@H](N)C(=O)NC2[C@@H](O)[C@H](n3cnc4c(N(C)C)ncnc43)O[C@@H]2CO)cc1 (stereo partly drawn) [puromycin, (2S)-2-amino-N-[(2S,4R,5R)-5-(6-dimethylaminopurin-9-yl)-4-hydroxy-2-(hydroxymethyl)oxolan-3-yl]-3-(4-methoxyphenyl)propanamide] |  | 18.9 | 26.1 | PERCENT VIABILITY (HEK293T cells; 10 μM compound, cell nuclei numbers, listed as Puromycin): 49.7%
CC(=O)[C@]1(O)Cc2c(O)c3c(c(O)c2[C@@H](O[C@H]2C[C@H](N)[C@H](O)[C@H](C)O2)C1)C(=O)c1ccccc1C3=O [idarubicin] | 76.8 | -40.6 | 10.75 | 
COc1cccc2c1C(=O)c1c(O)c3c(c(O)c1C2=O)C[C@@](O)(C(=O)CO)C[C@@H]3O[C@H]1C[C@H](N)[C@H](O)[C@H](C)O1.Cl [Doxorubicin Â•HCl] |  |  | 6.15 | PERCENT EFFECT 2 (Decreased GFP/Red ratio) (SARS-CoV-2 FSE (−1 PRF)): 109.41%; PERCENT EFFECT (Increased GFP/Red Ratio) (SARS-CoV-2 FSE (−1 PRF)): −57.80%
O=C(CCCCCCC(=O)Nc1ccccc1)NO [vorinostat] | -28.8 | 15.2 | 20.6 | 
COc1cccc2c1C(=O)c1c(O)c3c(c(O)c1C2=O)C[C@@](O)(C(=O)CO)C[C@@H]3O[C@H]1C[C@H](N)[C@H](O)[C@H](C)O1 [DOXORUBICIN] | 101 | -54.1 | 13.3 | 
C[C@@H]1O[C@@H](O[C@@H]2C=C3CC[C@@H]4[C@H](CC[C@]5(C)[C@@H](c6ccc(=O)oc6)CC[C@]45O)[C@@]3(C)CC2)[C@H](O)[C@H](O)[C@H]1O [PROSCILLARIDIN] | -37.8 | 16.5 | 3.4 | 
Cc1cccc(C)c1N=C1NCCCS1 [XYLAZINE] | -52.5 | 28.9 | 196.8 | 
Clc1ccc(C(Cn2ccnc2)OCc2ccsc2Cl)c(Cl)c1 (centres unmarked) [tioconazole] |  |  |  | inhibition at 10 µM (SARS-CoV-2 FSE (−1 PRF); [4]): -51.1%; activation at 10 µM (SARS-CoV-2 FSE (−1 PRF); [5]): 26.7%; PERCENT VIABILITY (HEK293T cells; human): 99.7%
Cc1cc(/C=C/c2ccc3cc(N(C)C)ccc3[n+]2C)c(C)n1-c1ccccc1 [PYRVINIUM PAMOATE] |  |  | 15.1 | 
NCCNc1ccc(NCCN)c2c1C(=O)c1ccncc1C2=O [Pixantrone dimaleate, 6,9-bis[(2-aminoethyl)amino]-5H,10H-benzo[g]isoquinoline-5,10-dione] | -29.9 | 15.8 | 120.8 | 
CCN1/C(=C/C=C/C=C/c2sc3ccccc3[n+]2CC)Sc2ccccc21.[I-] [dithiazanine, 3-ethyl-2-[(1Z,3E,5E)-5-(3-ethyl-1,3-benzothiazol-2-ylidene)penta-1,3-dienyl]-1,3-benzothiazol-3-ium iodide] | 79.7 | -39 | 48.28 | 

Molecule | inhibition at 10 µM (SARS-CoV-2 FSE (−1 PRF); [1]) [%] | activation at 10 µM (SARS-CoV-2 FSE (−1 PRF); [2]) [%] | PERCENT VIABILITY (HEK293T cells; [3]) [%] | also measured
GRAMICIDIN [GRAMICIDIN (gramicidin A shown)] |  |  | 3.3 | PERCENT EFFECT 2 (Decreased GFP/Red ratio) (SARS-CoV-2 FSE (−1 PRF)): −29.0%; PERCENT EFFECT (Increased GFP/Red Ratio) (SARS-CoV-2 FSE (−1 PRF)): 15.0%; PERCENT EFFECT 2 (Decreased GFP/Red ratio) (SARS-CoV-2 FSE (−1 PRF); listed as gramicidin): −38.6%; PERCENT EFFECT (Increased GFP/Red Ratio) (SARS-CoV-2 FSE (−1 PRF); listed as gramicidin): 18.9%; PERCENT VIABILITY (HEK293T cells; 10 μM compound, cell nuclei numbers, listed as gramicidin): 10.1%
CC[n+]1c(-c2ccccc2)c2cc(N)ccc2c2ccc(N)cc21 [HOMIDIUM BROMIDE] | 107 | -58 | 310.9 | 
CCCCC(=O)O[C@H]1CC[C@H]2[C@@H]3CCc4cc(O)ccc4[C@H]3CC[C@]12C [ESTRADIOL VALERATE] | 20.9 | -10.8 | 204.4 | 
Cc1cc(C)c(Nc2ccnc(Nc3ccc(C#N)cc3)n2)c(C)c1 [dapivirine, 4-[[4-[(2,4,6-trimethylphenyl)amino]pyrimidin-2-yl]amino]benzonitrile] | -51.1 | 24 | 36.7 | 
CCN(CC)CCNC(=O)c1cc(Br)c(N)cc1OC [BROMOPRIDE] | 65.7 | -35.5 | 113.8 | 
O=C1OC2(c3ccccc31)c1cc(I)c(O)c(I)c1Oc1c2cc(I)c(O)c1I [ERYTHROSINE SODIUM] | 105 | -56.3 | 100.7 | 
NCCCNc1ccc2c3c(nn2CCNCCO)-c2c(O)ccc(O)c2C(=O)c13 [piroxantrone, 5-(AMINO-PR-AMINO)-DI-HO-2-(2-(HO-ET-AMINO)-ET)-2H-DIBENZO(CD,G)INDAZOL-ONE] | 88.7 | -43.5 | 91.45 | 
Nc1c2ccccc2nc2ccccc12 [AMINACRINE] |  |  | 24.0 | inhibition at 10 µM (SARS-CoV-2 FSE (−1 PRF); [4]): -39.3%; activation at 10 µM (SARS-CoV-2 FSE (−1 PRF); [5]): 20.3%
COc1cccc2c1C(=O)c1c(O)c3c(c(O)c1C2=O)C[C@@](O)(C(C)=NNC(=O)c1ccccc1)C[C@@H]3O[C@H]1C[C@H](N)[C@H](O)[C@H](C)O1.Cl [zorubicin, N-[1-[(2S,4S)-4-[(2R,4S,5S,6S)-4-amino-5-hydroxy-6-methyloxan-2-yl]oxy-2,5,12-trihydroxy-7-methoxy-6,11-dioxo-3,4-dihydro-1H-tetracen-2-yl]ethylideneamino]benzamide hydrochloride] |  |  |  | inhibition at 10 µM (SARS-CoV-2 FSE (−1 PRF); [4]): 106%
Cc1cc(-c2ccc(/N=N/c3ccc4c(S(=O)(=O)O)cc(S(=O)(=O)O)c(N)c4c3O)c(C)c2)ccc1/N=N/c1ccc2c(S(=O)(=O)O)cc(S(=O)(=O)O)c(N)c2c1O [EVANS BLUE] | 31.2 | -13.6 | 159.7 | 
C[C@H]1O[C@@H](n2cc(F)c(=O)[nH]c2=O)[C@H](O)[C@@H]1O [DOXIFLURIDINE] | -31.7 | 17.1 | 382.9 | 
O=P(O)(O)OC1[C@H](OP(=O)(O)O)[C@H](O)C(O)[C@H](O)[C@H]1OP(=O)(O)O (stereo partly drawn) [atrinositol, [(2R,3S,5R,6R)-3,4,5-trihydroxy-2,6-diphosphonooxycyclohexyl] dihydrogen phosphate] | -61.7 | 30.2 |  | PERCENT VIABILITY (HEK293T cells; human): 199.8%
Nc1c2c(nc3ccccc13)CCCC2 [TACRINE HYDROCHLORIDE] |  |  |  | inhibition at 10 µM (SARS-CoV-2 FSE (−1 PRF); [4]): 97.1%; activation at 10 µM (SARS-CoV-2 FSE (−1 PRF); [5]): -50.2%; PERCENT VIABILITY (HEK293T cells; human): 148.9%
C[C@@H]1O[C@@H](O[C@H]2C[C@@H](O)[C@]3(CO)[C@H]4[C@H](O)C[C@]5(C)[C@@H](C6=CC(=O)OC6)CC[C@]5(O)[C@@H]4CC[C@]3(O)C2)[C@H](O)[C@H](O)[C@H]1O [Ouabain] | -29.7 | 15.7 | 16.4 | 
CCN(CCO)CCCC(C)Nc1ccnc2cc(Cl)ccc12 (centres unmarked) [HYDROXYCHLOROQUINE SULFATE] | -34.5 | 18.9 | 346.2 | 
C[C@H]1O[C@@H](O[C@H]2[C@@H](O)C[C@H](O[C@H]3[C@@H](O)C[C@H](O[C@H]4CC[C@@]5(C)[C@H](CC[C@@H]6[C@@H]5CC[C@]5(C)[C@@H](C7=CC(=O)OC7)CC[C@]65O)C4)O[C@@H]3C)O[C@@H]2C)C[C@H](O)[C@@H]1O [digitoxin] | -34.2 | 16.8 | 6.9 | 
